According to US20210275506A1, “COMPOSITIONS AND METHODS OF TREATMENT” (Blueberry Therapeutics Limited, priority 2018, published 2021):
Like-named read-outs stand apart in the source and are kept apart here.

What was measured:
[1] = Solubility of the APIs in ethanol and water vehicles; type: physicochemical; conditions: for Solubility in words: water and ethanol; for solubility: water and ethanol vehicles, read-out: Solubility, 10 mg/ml API solution
[2] = test system: S. epidermidis; experiment: Liquid MIC assay in 96 well plates; type: cell-based, Staphylococcus epidermidis; conditions: Diclofenac 50-500 ug/ml
Method: (§1) The API's formulated with Nanocin were tested on 2 bacterial strains associated with acne. Staphylococcus epidermidis (S. epidermidis) and the anaerobic Pseudomonas acnes (P. acnes). Two types of assay were performed: (i) a bacterial lawn assay where the formulation was pipetted onto a Whatman filter disc and then added to a dried lawn of the bacteria growing on agar; and also, (ii) a liquid minimum inhibitory concentration (MIC) assay, where the bacteria were grown in 96 well plates.
(§2) However, results from both were reliable.

[3] = test system: TNF-α; experiment: Inflammation assay: TNF-α release of LPS-stimulated THP-1 cells; type: cell-based, human; conditions: final concentration 1 or 0.1 ug/ml
Method: The release of cytokines (looking particularly at those associated with acne inflammation-TNF-α, IL-8, IL-1α) after stimulation with lipopolysaccharide (LPS) is a valid model system to test compounds for potential anti-inflammatory effects (Reference 1)
To standardise conditions for the assay, a LPS dose (0-1 ug/ml) was investigated on TNF-α, IL-8 and IL-1α response, over a time period from 2,4 and 24 hours.
A 1:1 mg/ml (Nanocin:API) was initially formulated in 20% ethanol and the stock formulation was then diluted down with serum free media and tested at a final concentration of 1 or 0.1 ug/ml.

[4] = DLS particle size (z-average) and polydispersity index of API:Nanocin formulations; type: physicochemical; set-up: z-average: unit not given here
[5] = test system: P. acnes; experiment: Liquid MIC assay in 96 well plates; type: cell-based, Pseudomonas acnes; conditions: Diclofenac 50-500 ug/ml
Method: as §1, §2

[6] = In vitro permeation, Franz cell, ToF-SIMS of cross sections and tape strips; type: in vitro ADME, pig; conditions: for permeation, key findings: all methods
[7] = test system: P. acnes; experiment: Bacterial lawn assay with soaked filter discs; type: cell-based, Pseudomonas acnes; conditions: Nanocin 1 mg/ml, Diclofenac 0.1-1 mg/ml
Method: as §1, with “plates. The bacterial lawn assay was much faster and easier to grow with the S. epidermidis as it was under aerobic conditions. The P. acnes growth on the agar plates was slower and difficult to capture on a camera (although possible to view by eye; see FIGS. 5c and 5d).” for “plates.”

[8] = test system: IL-8; experiment: Inflammation assay: IL-8 release of LPS-stimulated THP-1 cells; type: cell-based, human; conditions: for potency at inhibiting the LPS inflammatory response, in words / MIC for inhibiting the LPS inflammatory response (IL-8): dose range 0-30 ug/ml; for MIC for inhibiting the LPS inflammatory response (IL-8) / IL-8 release, in words: 24 h; for IL-8 release, in words: 30 ug/ml API, 100 ug/ml Nanocin
[9] = aqueous with cosolvent or surfactant or cyclodextrin, 5% ethanol
[10] = aqueous with cosolvent or surfactant or cyclodextrin, 10% ethanol
[11] = aqueous with cosolvent or surfactant or cyclodextrin, 15% ethanol
[12] = aqueous with cosolvent or surfactant or cyclodextrin, 20% ethanol
[13] = aqueous with cosolvent or surfactant or cyclodextrin, 30% ethanol

Compound | Solubility in words [1] | solubility [1, 9] [µg/mL] | solubility [1, 10] [µg/mL] | solubility [1, 11] [µg/mL] | solubility [1, 12] [µg/mL] | solubility [1, 13] [µg/mL] | solubility ([1]; water) [µg/mL] | PDI ([4]; 0.33:1 mg/ml API:N) | PDI ([4]; 1:1 mg/ml API:N) | potency at inhibiting the LPS inflammatory response, in words [8] | MIC for inhibiting the LPS inflammatory response (IL-8) [8] [µg/mL] | z-average ([4]; 0.33:1 mg/ml API:N) | z-average ([4]; 1:1 mg/ml API:N) | permeation, key findings [6] | IL-8 release, in words [8] | further results
Cc1ccc(-c2cc(C(F)(F)F)nn2-c2ccc(S(N)(=O)=O)cc2)cc1 [Celecoxib] | insolubility | < 10000 | < 10000 | < 10000 | < 10000 | < 10000 | < 10000 | – | – | – | – | – | – | – | – | –
O=C(O)Cc1ccccc1Nc1c(Cl)cccc1Cl [Diclofenac] | most soluble | – | > 10000 | > 10000 | > 10000 | > 10000 | > 10000 | 0.251 | 0.817 | more potent than Ibuprofen | 1 | – | – | – | – | bacterial growth inhibition by API alone [2]: did not exhibit any bacterial growth inhibition; LPS-stimulated TNF-α response, in words [3]: reduced the LPS-stimulated inflammatory response; bacterial growth inhibition / anti-bacterial activity of API alone [5]: did not exhibit any bacterial growth inhibition; intensity of diclofenac salt ion markers in stratum corneum ([6]; ToF-SIMS cross sections, 1 mg/ml Diclofenac): slight elevation; diclofenac salt ion markers in tape strips 1-3 (permeation into top layers of stratum corneum) ([6]; ToF-SIMS tape strips, 1 mg/ml Diclofenac): does not and none; inhibition of bacterial growth (halo around disc) [7]: not seen; LPS-stimulated IL-8 response, in words ([8]; final concentration 1 or 0.1 ug/ml): reduced the LPS-stimulated inflammatory response
CC(C)Cc1ccc(C(C)C(=O)O)cc1 (centres unmarked) [Ibuprofen] | better solubility in water and ethanol | – | – | – | – | – | – | 0.289 | 0.34 | – | – | 194.1 | 311.9 | no evidence | very little effect on reducing the IL-8 release | –
CO[C@H]1C[C@@H]2CC[C@@H](C)[C@@](O)(O2)C(=O)C(=O)N2CCCC[C@H]2C(=O)O[C@H]([C@H](C)C[C@@H]2CC[C@@H](O)[C@H](OC)C2)CC(=O)[C@H](C)/C=C(\C)[C@@H](O)[C@@H](OC)C(=O)[C@H](C)C[C@H](C)/C=C/C=C/C=C/1C [Rapamycin] | – | < 10000 | < 10000 | < 10000 | < 10000 | > 10000 | < 10000 | – | – | – | 1 | – | – | no evidence | – | –
C=CC[C@@H]1/C=C(\C)C[C@H](C)C[C@H](OC)[C@H]2O[C@@](O)(C(=O)C(=O)N3CCCC[C@H]3C(=O)O[C@H](/C(C)=C/[C@@H]3CC[C@@H](O)[C@H](OC)C3)[C@H](C)[C@@H](O)CC1=O)[C@H](C)C[C@@H]2OC [Tacrolimus] | – | < 10000 | – | > 10000 | > 10000 | > 10000 | < 10000 | 0.332 | 1 | more potent than Ibuprofen | 0.3 | 41.54 | 277.1 | no evidence | more effective anti-inflammatory | Solubility, 10 mg/ml API solution ([1]; 10% ethanol): x(better)
